# Measurements from patent US9708306B2, “Benzimidazole derivatives and preparation process and pharmaceutical uses thereof” (WUHAN LL SCIENCE AND TECHNOLOGY DEVELOPMENT CO., LTD, priority 2015, dated 2017).
# Read-outs that look alike come from different tables or passages of the source.
# Key:
# [1] = test system: renovascular hypertensive rats; assay: Effect on reducing blood pressure of renovascular hypertensive rats by single oral administration of potassium salt of QR01019; assay type: in vivo, Wistar rats; conditions: RHR; for Maximum blood pressure reduction / Variations on heart rate: 1.0 mg/kg, single oral administration
# Method: Wistar rats (provided by Hubei Province Disease Prevention Control Center, Wuhan, Hubei), male, weighted of 180 to 200 g, are randomly classified into 5 groups, including negative control group (0.5% CMC-Na), positive control group (1.0 mg/kg of potassium salt of Azilsartan medoxomil as the positive drug) and three groups with the test compound, QR01019 potassium salt (1.0 mg/kg), 6-8 animals per group. The unilateral renal artery of the rates were ligated to form two-kidney, one-clip renovascular hypertensive rat (RHR) models. After the surgery, the blood pressure was measured for weekly, and the measurement continued for 4 weeks. The rats whose blood pressures were steadily elevated by 4 kPa were successfully modeled rats. Before measuring blood pressure, the rat tails were heated by using a cyclic water bath tail sleeve at 39° C. to expand tail vessel, and thereafter, a tail sleeve method (BP2010A noninvasive blood pressure meter, Beijing Jiandeer Technology Limited Corporation, No. 1, Shangdi 10th Street, Haidian District, Beijing) was used to measure the blood pressures and heart rates of the rats before the administrations and at 1, 3, 5, 7, and 10 hours after oral administration, and each of the time points was measured three times to take the mean value. Maximum Blood pressure reduction (%)=maximum blood pressure reduction value after the administration/blood pressure value before the administration*100%.
# [2] = test system: spontaneously hypertensive rats (SHR); assay: Effect on reducing blood pressure of spontaneously hypertensive rats (SHR) by multiple oral administrations; assay type: in vivo; conditions: for inhibition in vivo at 0.5 mg/kg / inhibition in vivo at 1 mg/kg / inhibition in vivo at 2 mg/kg: Rattus norvegicus
# [3] = test system: renovascular hypertensive rats; assay: Effect on reducing blood pressure of renovascular hypertensive rats by single oral administration; assay type: in vivo, Wistar rats
# normal rats = assay: Effect on blood pressure of normal rats by single oral administration; assay type: in vivo, Wistar rats; conditions: Rattus norvegicus, po, single, normal rats
# [4] = renal artery-ligated rat, result in words
smiles,measurement,setting,value
"CCOc1nc2cccc(C(=O)OCc3oc(=O)oc3C)c2n1Cc1ccc(-c2ccccc2-c2noc(=O)[n-]2)cc1.[K+] [Positive control, potassium salt of Azilsartan medoxomil, reference compound]",Maximum blood pressure reduction,[1],34 ± 3.6%
same,Variations on heart rate,[1],−14 ± 7%
CCOc1nc2cccc(C(=O)OC(C)OC(=O)OCc3nc(C)c(C)nc3C)c2n1Cc1ccc(-c2ccccc2-c2noc(=O)[nH]2)cc1.[K] (centres unmarked) [QR01019 potassium salt],Maximum blood pressure reduction,[1],38 ± 4.3%
same,Variations on heart rate,[1],−18 ± 5%
same,regulation on the heart rate compared with positive control group,[1]; result in words,obviously superior to the positive control group
same,blood pressure reduction effect compared with control group,"[1]; same dosage, result in words",significant blood pressure reduction effect
CCOc1nc2cccc(C(=O)OCc3c(-c4ccccc4)no[n+]3[O-])c2n1Cc1ccc(-c2ccccc2-c2noc(=O)[nH]2)cc1 [QR01009],inhibition in vivo at 0.5 mg/kg,"[2]; 0.5 mg/kg oral once per day, SHR, 1 hour after the administration, read-out: Maximum blood pressure reduction, 1st-day administration",24 ± 6.8%
same,inhibition in vivo at 0.5 mg/kg,"[2]; 0.5 mg/kg oral once per day, SHR, 1 hour after the administration, read-out: Maximum blood pressure reduction, 7th-day administration",28 ± 5.3%
same,inhibition in vivo at 0.5 mg/kg,"[2]; 0.5 mg/kg oral once per day, SHR, 1 hour after the administration, read-out: Maximum blood pressure reduction, 14th-day administration",25 ± 4.9%
same,inhibition in vivo at 0.5 mg/kg,"[2]; 0.5 mg/kg oral, SHR, read-out: Heart Rate (effect on reducing heart rate)",23 ± 3%
same,inhibition in vivo at 1 mg/kg,"[2]; 1.0 mg/kg oral once per day, SHR, 1 hour after the administration, read-out: Maximum blood pressure reduction, 1st-day administration",42 ± 6.3%
same,inhibition in vivo at 1 mg/kg,"[2]; 1.0 mg/kg oral once per day, SHR, 1 hour after the administration, read-out: Maximum blood pressure reduction, 7th-day administration",41 ± 5.9%
same,inhibition in vivo at 1 mg/kg,"[2]; 1.0 mg/kg oral once per day, SHR, 1 hour after the administration, read-out: Maximum blood pressure reduction, 14th-day administration",45 ± 6.7%
same,inhibition in vivo at 1 mg/kg,"[2]; 1.0 mg/kg oral, SHR, read-out: Heart Rate (effect on reducing heart rate)",24 ± 2%
same,inhibition in vivo at 2 mg/kg,"[2]; 2.0 mg/kg oral once per day, SHR, 1 hour after the administration, read-out: Maximum blood pressure reduction, 1st-day administration",45 ± 5.6%
same,inhibition in vivo at 2 mg/kg,"[2]; 2.0 mg/kg oral once per day, SHR, 1 hour after the administration, read-out: Maximum blood pressure reduction, 7th-day administration",48 ± 4.6%
same,inhibition in vivo at 2 mg/kg,"[2]; 2.0 mg/kg oral once per day, SHR, 1 hour after the administration, read-out: Maximum blood pressure reduction, 14th-day administration",43 ± 7.2%
same,inhibition in vivo at 2 mg/kg,"[2]; 2.0 mg/kg oral, SHR, read-out: Heart Rate (effect on reducing heart rate)",27 ± 5%
same,blood pressure reduction effect compared with Azilsartan medoxomil,"[2]; SHR, result in words",obviously superior to that of the Azilsartan medoxomil positive drug
same,reduction effects on the heart rate of SHR rats,"[2]; during the whole administration, result in words",significant reduction effects on the heart rate
same,change in vivo at 0.5 mg/kg,"[3]; Rattus norvegicus, 0.5 mg/kg, single oral administration, RHR, read-out: Variations on heart rate",-12 ± 4%
same,inhibition in vivo at 0.5 mg/kg,"[3]; Rattus norvegicus, 0.5 mg/kg, single oral administration, two-kidney one-clip RHR, measured 1-10 h, read-out: Maximum blood pressure reduction",22 ± 2.8%
same,change in vivo at 1 mg/kg,"[3]; Rattus norvegicus, 1.0 mg/kg, single oral administration, RHR, read-out: Variations on heart rate",-25 ± 5%
same,inhibition in vivo at 1 mg/kg,"[3]; Rattus norvegicus, 1.0 mg/kg, single oral administration, two-kidney one-clip RHR, measured 1-10 h, read-out: Maximum blood pressure reduction",36 ± 3.2%
same,change in vivo at 2 mg/kg,"[3]; Rattus norvegicus, 2.0 mg/kg, single oral administration, RHR, read-out: Variations on heart rate",-28 ± 8%
same,inhibition in vivo at 2 mg/kg,"[3]; Rattus norvegicus, 2.0 mg/kg, single oral administration, two-kidney one-clip RHR, measured 1-10 h, read-out: Maximum blood pressure reduction",43 ± 6.7%
same,blood pressure reduction at 24 hours after the administration,"[3]; renal artery-ligated rat, 24 hours after the administration, dose not stated",25%
same,blood pressure reduction effect compared with Azilsartan medoxomil,[3]; [4],obviously superior to that of the Azilsartan medoxomil positive drug
same,lasting time of the blood pressure reduction effect compared with Azilsartan medoxomil,[3]; [4],close to that of Azilsartan medoxomil
same,inhibition in vivo at 0.5 mg/kg,"normal rats; 8 h, 0.5 mg/kg p.o., read-out: blood pressure reduction at 8 h after the administration",3.1 ± 2.4%
same,inhibition in vivo at 1 mg/kg,"normal rats; 8 h, 1.0 mg/kg p.o., read-out: blood pressure reduction at 8 h after the administration",5.6 ± 1.9%
same,inhibition in vivo at 2 mg/kg,"normal rats; 8 h, 2.0 mg/kg p.o., read-out: blood pressure reduction at 8 h after the administration",4.8 ± 5.8%
same,change in vivo at 0.5 mg/kg,"normal rats; 0.5 mg/kg p.o., read-out: variations on heart rate",-5 ± 2%
same,change in vivo at 1 mg/kg,"normal rats; 1.0 mg/kg p.o., read-out: variations on heart rate",4%
same,change in vivo at 2 mg/kg,"normal rats; 2.0 mg/kg p.o., read-out: variations on heart rate",-8 ± 5%
